Legend:
[1] = Cytotoxicity against mouse Microglia cells assessed as reduction in cell viability; type: toxicity, cell-based
Microglia = assay: Anti-inflammatory activity against mouse Microglia cells assessed as reduction in LPS-induced IL-1beta production; type: functional, cell-based

IC50 (Microglia) [µM] | SMILES | CC50 [1] [µM]
86.7 | C=C1[C@@H]2[C@H]3OC(=O)[C@@H](CN4C=C(C(N)=O)C[C@@H](CO)C4=O)[C@@H]3[C@@H](O)CC(=C)[C@@H]2C[C@@H]1O | > 100
54.2 | C=C1[C@@H]2[C@H]3OC(=O)[C@@H](C)[C@@H]3[C@@H](O)CC(=C)[C@@H]2C[C@@H]1O | > 100
44.5 | C=C1[C@@H]2[C@H]3OC(=O)[C@@H](C)[C@@H]3[C@@H](O[C@@H]3O[C@H](CO)[C@@H](O)[C@H](O)[C@H]3O)CC(=C)[C@@H]2C[C@@H]1O | > 100
62.6 | C=C1[C@@H]2[C@H]3OC(=O)[C@@H](CNC(=O)[C@H](CO)CN4CCC[C@H]4C(=O)O)[C@@H]3[C@@H](O)CC(=C)[C@@H]2C[C@@H]1O | > 100

— ChEMBL document CHEMBL5120761, “Lanicepines A and B, Sesquiterpenes with Amino Acid-Derived Substituents from the Flowering Aerial Parts of Saussurea laniceps” (J Nat Prod, 2022)
